{"source": "patent US20210353595A1", "about": "“USE OF MELATONIN IN PREPARATION OF MEDICAMENT FOR INHIBITING AND/OR KILLING BACTERIUM” (priority 2020, published 2021)", "key": {"P. multocida cells": {"test_system": "P. multocida cells", "assay": "SEM and TEM morphology of bacterial cells", "type": "cell-based, Pasteurella multocida", "conditions": "combined action of melatonin and citric acid; FIG. 18", "description": "The effect of melatonin on the morphologies of P. multocida cells were evaluated employing SEM and TEM. 1 mL of fresh Pasteurella multocida (1×10^9 CFU) at the logarithmic growth stage was added into 100 mL of fresh Martin liquid medium containing different concentrations (1, 2 or 3 mg/mL) of MT. MT-free DMSO was used as a solvent control group and ampicillin (100 μg/mL) was used as a positive control group. All cultures were shaken at 220 rpm in a shaker at 37° C. for 8 hours, 12 hours or 16 hours. The bacterial samples were centrifuged at 3000 r/min for 10 minutes, the supernatant was removed, and cells were collected and washed with PBS for 3 times. Then the cells were fixed with a fixation solution of 2.5% fresh glutaraldehyde for 6 hours, and washed with PBS for 3 times, each time for 10 minutes. Subsequently, the SEM samples were dehydrated with 50%, 70%, 80% and 90% ethanol for 15 minutes respectively, and then dehydrated with 100% ethanol for 3 times, each time for 30 minutes. Ethanol was removed by washing with tert-butyl alcohol for three times, each time for 30 minutes. The samples were dried by a freeze dryer and plated with 10 nm of gold film by an ion sputtering device. The samples were examined using a field scanning electron microscope (FESEM, Hitch SU8010).\nThe TEM samples were fixed with 1%-2% […] for 2-3 hours, and washed with […] 3 times, each time for 10 minutes. The samples were dehydrated with 30%, 50%, 70%, 80% and 90% ethanol for 20 minutes respectively, and then dehydrated with 100% ethanol 3 times, each time for 30 minutes. Ethanol was replaced with acetone three times, each time for 30 minutes. The bacterial samples were placed on a copper grid with a formvar membrane, and negatively stained with phosphotungstic acid (2% v/v, pH=6.7). The surface area of the sample was less than 0.2 mm×0.2 mm, and slice thickness was between 50 and 90 nm (Lycra UC7). The samples were detected by TEM (Hitachi H-7650) at 80 kV, and photographs of the samples were taken by a Gatan832 CCD camera (Gatan). […]"}, "Klebsiella pneumoniae": {"test_system": "Klebsiella pneumoniae", "assay": "Growth curve with melatonin and citric acid", "type": "cell-based", "conditions": "MT 1-3 mg/mL with CA 1-3 mg/mL, FIG. 27", "description": "(§1) In additional studies, 1 mL of Klebsiella pneumoniae, Pseudomonas aeruginosa, Diplococcus pneumoniae and Streptococcus pneumoniae at the logarithmic growth stage was added into 100 mL of fresh and sterile Martin broth medium containing different concentrations of melatonin and citric acid (CA) (MT-1 mg/mL, MT-1 mg/mL-CA-1 mg/mL, MT-1 mg/mL-CA-2 mg/mL, MT-1 mg/mL-CA-3 mg/mL; MT-2 mg/mL, MT-2 mg/mL-CA-1 mg/mL, MT-2 mg/mL-CA-2 mg/mL, MT-2 mg/mL-CA-3 mg/mL; MT-3 mg/mL, MT-3 mg/mL-CA-1 mg/mL, MT-3 mg/mL-CA-2 mg/mL MT-3 mg/mL-CA-3 mg/mL)."}, "Pseudomonas aeruginosa": {"test_system": "Pseudomonas aeruginosa", "assay": "Growth curve with melatonin and citric acid", "type": "cell-based", "conditions": "MT 1-3 mg/mL with CA 1-3 mg/mL, FIG. 27", "description": "as §1"}, "Pasteurella multocida [1]": {"test_system": "Pasteurella multocida", "assay": "Leakage of cell contents with melatonin and citric acid", "type": "cell-based", "conditions": "MT with CA (1/1, 2/2, 3/3 mg/mL), 12 h", "description": "Additionally, 1 mL of Pasteurella multocida (1×10^9 CFU) at the logarithmic growth stage was added into 100 mL of fresh and sterile Martin broth medium containing different concentrations of melatonin and citric acid (CA) (MT-1 mg/mL, MT-2 mg/mL, MT-3 mg/mL, CA-1 mg/mL, CA-2 mg/mL, CA-3 mg/mL, MT-1 mg/mL-CA-1 mg/mL, MT-2 mg/mL-CA-2 mg/mL, MT-3 mg/mL-CA-3 mg/mL). The melatonin-free DMSO was used as a solvent control group, and the bacterial cells were cultured in a shaker at 37° C. and 220 rpm for 12 h. Thereafter, 1 mL of the bacterial solution was taken and centrifuged at 3000 r/min for 10 minutes, and the supernatant and precipitated cells were collected, respectively. At the same time, 2.5 mmol/mL of […] (ONPG) and Pasteurella multocida were added to detect ([…]. The concentrations of protein, alkaline phosphatase (AKP) and reducing sugar in the supernatant were determined sequentially using respective determination kits. The β-galactosidase in the supernatant was determined by measuring the optical density at 420 nm (OD420). Each experiment was carried out for three times, and each group was set in triplicate."}, "Pasteurella multocida [2]": {"test_system": "Pasteurella multocida", "assay": "Growth curve with melatonin and citric acid", "type": "cell-based", "conditions": "MT 1-3 mg/mL with CA 1-3 mg/mL, 12 h; FIG. 17", "protocol": "1 mL of Pasteurella multocida (1×10^9 CFU) at the logarithmic growth stage was also added into 100 mL of fresh and sterile Martin broth medium containing different concentrations of melatonin and citric acid (CA) (MT-1 mg/mL, MT-1 mg/mL-CA-1 mg/mL, MT-1 mg/mL-CA-2 mg/mL, MT-1 mg/mL-CA-3 mg/mL; MT-2 mg/mL, MT-2 mg/mL-CA-1 mg/mL, MT-2 mg/mL-CA-2 mg/mL, MT-2 mg/mL-CA-3 mg/mL; MT-3 mg/mL, MT-3mg/mL-CA-1 mg/mL, MT-3 mg/mL-CA-2 mg/mL, and MT-3 mg/mL-CA-3 mg/mL). DMSO not containing melatonin and citric acid was used as a solvent control group, and the bacterial cells were cultured in a constant-temperature shaker at 37° C. and 220 rpm for 12 h. Then the growth curve of the cells were determined. Each experiment was carried out for three times, and each group was set in triplicate."}, "Pasteurella multocida [3]": {"test_system": "Pasteurella multocida", "assay": "Growth curve with exogenous citric acid", "type": "cell-based", "conditions": "citric acid 1, 2, 3 mg/mL alone; FIG. 16", "description": "Here, 1 mL of Pasteurella multocida (1×10^9 CFU) at the logarithmic growth stage was added into 100 mL of fresh and sterile Martin broth medium containing different concentrations of citric acid (CA-1 mg/ml, CA-2 mg/mL, and CA-3 mg/mL), and citric acid-free DMSO was used as a solvent control group. The bacterial cells were cultured in a constant-temperature shaker at 37° C. and 220 rpm for […]. Then, the growth curve of the cells was determined. Each experiment was repeated for three times, and each group was set in triplicate."}}}
{"smiles": "O=C(O)CC(O)(CC(=O)O)C(=O)O", "note": "[citric acid]", "values": [{"measurement": "cytoplasmic vacuolization and irregular cell membrane caused by melatonin (TEM)", "setting": "P. multocida cells", "result": "disappeared"}, {"measurement": "effect of exogenous citric acid on bacteriostatic effect of melatonin", "setting": "Klebsiella pneumoniae", "result": "can reduce the bacteriostatic effect of melatonin"}, {"measurement": "effect of exogenous citric acid on bacteriostatic effect of melatonin", "setting": "Pseudomonas aeruginosa", "result": "can reduce the bacteriostatic effect of melatonin"}, {"measurement": "melatonin-induced release of reducing sugar", "setting": "Pasteurella multocida [1]; FIG. 19", "result": "significantly reduces"}, {"measurement": "melatonin-induced release of proteins", "setting": "Pasteurella multocida [1]; FIG. 20", "result": "significantly reduces"}, {"measurement": "melatonin-induced release of AKP enzymes (alkaline phosphatase)", "setting": "Pasteurella multocida [1]; FIG. 21", "result": "significantly reduces"}, {"measurement": "melatonin-induced release of β-galactosidase", "setting": "Pasteurella multocida [1]; FIG. 22", "result": "significantly reduces"}, {"measurement": "melatonin-induced activity (release) of ATPase", "setting": "Pasteurella multocida [1]; FIG. 23", "result": "significantly reduces"}, {"measurement": "effect of added citric acid on antibacterial activity of melatonin", "setting": "Pasteurella multocida [2]", "result": "reduces the antibacterial activity of melatonin"}, {"measurement": "growth of Pasteurella multocida", "setting": "Pasteurella multocida [3]", "result": "promotes the growth"}]}
